According to article PMC8581430, “Peptide ligands targeting FGF receptors promote recovery from dorsal root crush injury via AKT/mTOR signaling” (Theranostics, 2021):

Legend:
[1] = test system: primary DRG neurons; test: Axon growth of primary adult DRG neurons; assay type: cell-based, Sprague-Dawley rat; conditions: CH02 20 μM + Torin1 1 μM, 48 h, n = 62
Experimental: (§1) Figure 3 Effect of the CH02 peptide on axon growth and neuron survival. (A) Representative images of the CH02 peptide effect on axon growth in adult primary DRG neurons. DRG neurons were obtained from adult Sprague-Dawley rats. After 12-h of culture, neurons were stimulated with CH02 or bFGF for 48 h. Axonal outgrowth was assessed by immunocytochemistry using an antibody against β-tubulin, an axonal marker. Images were acquired from random neurons by fluorescence microscopy. Scale bars = 50 μm. (B) Quantification of the longest axon length of each neuron randomly selected in three independent experiments from (A), using Image-Pro Plus 6.0 software (n = 48 for each condition; *p < 0.05, ****p < 0.0001 by one-way ANOVA with Dunnett's test; ns, not significant; mean ± SD). (C) Representative images of the CH02 effect on axon growth in ex vivo cultured adult DRG explants. The axon is shown in fluorescence (β3-tubulin) images. Scale bars = 100 μm. (D) Quantification of axon growth of DRG explants from (C) using the Neurite-J software (n=4 for each condition; *control vs. CH02; #control vs. bFGF; *p < 0.05, **p < 0.01, ***p < 0.001, #p < 0.05, ##p < 0.01 by two-way ANOVA with Dunnett's test; ns, not significant; mean ± SEM). (E) Cell cytotoxicity assay of primary DRG neurons induced by H2O2. LDH released from damaged cell membranes was detected by an LDH assay kit. The results are expressed as the mean ± SEM (**p < 0.01 by one-way ANOVA with Dunnett's test; ns, not significant, compared with the control group). (F) Representative TUNEL staining of apoptotic neurons induced by H2O2 in the control, CH02, and FGF2 groups. Scale bars = 50 μm. Apoptotic neurons were detected by a TUNEL apoptosis assay kit. TUNEL (green); NeuN, neuronal marker (red); DAPI (blue). (G) Quantification of TUNEL-positive neurons from (F) (n = 3 for each condition; **p < 0.01 by one-way ANOVA with Dunnett's test; ns, not significant, compared with the control group). DRG neurons were obtained from adult Sprague-Dawley rats. […]

[2] = test system: DRG explants; test: Axon growth of ex vivo cultured adult DRG explants; assay type: cell-based, Sprague-Dawley rat; conditions: CH02 20 μM + Torin1 1 μM, 4 days, n = 4
Experimental: as §1, with “(F) Representative TUNEL staining of apoptotic neurons induced by H2O2 in the control, CH02, and FGF2 groups. Scale bars = 50 μm.” left out, “TUNEL (green); NeuN, neuronal marker (red); DAPI (blue).” left out, “group).” for “group). DRG neurons were obtained from adult Sprague-Dawley rats.”
DRG explants were harvested from adult Sprague-Dawley rats (220-250 g) and placed in a 3.5 cm dish containing 2 mL of ice-cold neurobasal medium supplemented with 1 × B27, 4 mM Glutamax and 3× penicillin/streptomycin (Pen/Strep). […] After 7 days of culture, axon growth was measured. […]

[3] = test system: dorsal root injury (DRI) model; test: Plantar test after dorsal root crush injury; assay type: in vivo, Sprague-Dawley rat; conditions: rats after C5-T1 dorsal root crush, up to 8 weeks, n = 5
Experimental: (§2) Animals were anesthetized by intraperitoneal injection of pentobarbital sodium (40 mg/kg body weight) and local injection of 0.5% lidocaine. Under sterile conditions, a skin incision between the C4 and T2 spinous processes was made using a no. 10 scalpel blade. Subsequent surgeries were performed under a stereomicroscope. The muscles attached to the lamina were separated and removed using a surgical blade and microscissors to expose the lamina. A right hemilaminectomy on the C5-T1 vertebrae was performed using a fine rongeur to expose the right C5-T1 DRGs and associated dorsal roots. After dura mater opening, a concurrent C5 -T1 dorsal root crush injury was performed using no. 7 forceps. The tines of the forceps were inserted above and below the root, halfway between the dorsal root ganglia and DREZ. Each root was crushed three times, five times each, to ensure that the dorsal roots were crushed to sever all the axons within the root completely. […]
Animals treated with CH02 or FGF2 (n = 5 animals per group) were assessed using the following behavioral tests:
Animals were acclimated to the testing room for at least 60 min before baseline testing, conducted before any surgical procedure. After dorsal root crush injuries, temperature sensation was measured twice a week for 8 weeks. […] Simultaneously, the paw withdrawal latency was recorded. […]

[4] = test system: dorsal root injury (DRI) model; test: Von Frey test after dorsal root crush injury; assay type: in vivo, Sprague-Dawley rat; conditions: rats after C5-T1 dorsal root crush, up to 8 weeks, n = 5
Experimental: as §2, with “DREZ.” for “DREZ. Each root was crushed three times, five times each, to ensure that the dorsal roots were crushed to sever all the axons within the root completely.”
Animals treated with CH02 or FGF2 (n = 5 animals per group) were assessed using the following behavioral tests: […]
After an acclimation period, the animal was stimulated using a Von Frey-type 0.5 mm filament, which was placed below the center of the plantar surface of the tested paw with increasing pressure. On every test day, each foot (left front and right front) was measured 5 times at 5-min intervals, and the number of paw withdrawals was recorded.

Molecule	effect of mTOR inhibitor on CH02-promoted axon growth, primary neurons [1]	effect of mTOR inhibitor on CH02-promoted axon growth, DRG explants [2]	thermal sensation recovery [3]	pressure sensation recovery [4]
CCC(=O)N1CCN(c2ccc(-n3c(=O)ccc4cnc5ccc(-c6cnc7ccccc7c6)cc5c43)cc2C(F)(F)F)CC1 [Torin1]	greatly reduced the effect of the CH02 peptide in promoting axon growth	greatly reduced the effect of the CH02 peptide in promoting axon growth	–	–
FGF2	–	–	significantly improved	significantly improved
